Test results published in patent publication US20030013099A1, “Genes regulated by DNA methylation in colon tumors” (priority 2001, published 2003).

Test system: HMEC cells
Experiment: microarray differential expression, HMEC cells treated with Aza
Assay type: cell-based, human
Settings: vs untreated, log base 2, negative = upregulation
Procedure: HT29 cells were derived from a Grade II adenocarcinoma of the colon obtained from a person. HCT116 cells are a subpopulation of malignant cells isolated from a primary cell culture of a single human colonic carcinoma (Brattain et al. (1981) Cancer Res 41:1751-6). HMEC cells are a primary human epithelial cell line derived from the breast tissue of a normal donor. […] Treated cells were exposed to 500 nM 5-aza-2-deoxycytidine (Aza; Sigma-Aldrich) 24 hours after passage in complete culture medium. Control cultures were treated in parallel with phosphate buffered saline vehicle. After twenty-four hours, culture medium was replaced with drug-free medium. Control and Aza-treated cells were subcultured at equal densities at 1 and 5 days after the initial treatment, and proliferation was measured at the subsequent time point using a Coulter counter (Beckman Coulter, Fullerton Calif.). […]
Cells were harvested and lysed in 1 ml of TRIZOL reagent (5×10^6 cells/ml; Invitrogen). The lysates were vortexed thoroughly and incubated at room temperature for 2-3 minutes and extracted with 0.5 ml chloroform. The extract was mixed, incubated at room temperature for 5 minutes, and centrifuged at 16,000× g for 15 minutes at 4° C. The aqueous layer was collected, and an equal volume of isopropanol was added. Samples were mixed, incubated at room temperature for 10 minutes, and centrifuged at 16,000× g for 20 minutes at 4° C. The supernatant was removed, and the RNA pellet was washed with 1 ml of 70% ethanol, centrifuged at 16,000× g at 4° C., and resuspended in RNAse-free water. The concentration of the RNA was determined by measuring the optical density at 260 nm.
Poly(A) RNA was prepared using an OLIGOTEX mRNA kit (Qiagen) with the following modifications: OLIGOTEX beads were washed in tubes instead of on spin columns, resuspended in elution buffer, and then loaded onto spin columns to recover mRNA. To obtain maximum yield, the mRNA was eluted twice.
Each poly(A) RNA sample was reverse transcribed using MMLV reverse-transcriptase, 0.05 pg/μl oligo-d(T) primer (21mer), 1× first strand buffer, 0.03 units/ul RNAse inhibitor, 500 uM dAT?, 500 uM dGTP, 500 uM dTTP, 40 uM dCTP, and 40 uM either dCTP-Cy3 or dCTP-Cy5 (APB). The reverse transcription reaction was performed in a […] volume containing 200 ng poly(A) RNA using the GEMBRIGHT kit (Incyte Genomics). Specific control poly(A) RNAs (YCFRO6, YCFR45, YCFR67, YCFR85, YCFR43, YCFR22, YCFR23, YCFR25, YCFR44, YCFR26) were synthesized by in vitro transcription from non-coding yeast genomic DNA (W. Lei, unpublished). As quantitative controls, control mRNAs (YCFRO6, YCFR45, YCFR67, and YCFR85) at 0.002 ng, 0.02 ng, 0.2 ng, and 2 ng were diluted into reverse transcription reaction at ratios of 1:100,000, 1:10,000, 1:1000, 1:100 (w/w) to sample mRNA, respectively. To sample differential expression patterns, control mRNAs (YCFR43, YCFR22, YCFR23, YCFR25, YCFR44, YCFR26) were diluted into reverse transcription reaction at ratios of 1:3, 3:1, 1:10, 10:1, 1:25, 25:1 (w/w) to sample mRNA. Reactions were incubated at 37° C. for 2 hours, treated with […] of 0.5M sodium hydroxide, and incubated for 20 minutes at 85° C. to the stop the reaction and degrade the RNA.
cDNAs were purified using two successive CHROMA SPIN 30 gel filtration spin columns (Clontech). Cy3- and Cy5-labeled reaction samples were combined as described below and ethanol precipitated using […] of 100% ethanol. The cDNAs were then dried to completion using a SpeedVAC system (Savant Instruments, Holbrook N.Y.) and resuspended in 14 μl 5× SSC, 0.2% SDS.
Hybridization reactions contained 9 μl of sample mixture containing 0.2 μg each of Cy3 and CyS labeled cDNA synthesis products in 5× SSC, 0.2% SDS hybridization buffer. The mixture was heated to 65° C. for 5 minutes and was aliquoted onto the microarray surface and covered with an 1.8 cm^2 coverslip. […]

[1] = SEQ ID NO:1 hypothetical protein
[2] = SEQ ID NO:3 interferon-inducible protein
[3] = SEQ ID NO:5 chromosome 6p21.3, HLA Class I region
[4] = SEQ ID NO:6 unnamed protein product
[5] = SEQ ID NO:8 putative tumor antigen
[6] = SEQ ID NO:12 cDNA clone ZD16H10
[7] = SEQ ID NO:13, 14 T-cell receptor gamma
[8] = SEQ ID NO:15 pTR5 repetitive sequence
[9] = SEQ ID NO:24 pTR7 repetitive sequence
[10] = SEQ ID NO:25 chromosome 21 segment HS21C049
[11] = SEQ ID NO:26 hypothetical protein

Nc1ncn([C@H]2C[C@H](O)[C@@H](CO)O2)c(=O)n1 [Aza, 5-aza-2-deoxycytidine]
differential expression, Clone ID 2416222, HMEC t/Aza (4d) [1]: 0.00
differential expression, Clone ID 2416222, HMEC t/Aza (9d) [1]: 0.00
differential expression, Clone ID 4103545, HMEC t/Aza (4d) (SEQ ID NO:2 Incyte Unique): −0.13
differential expression, Clone ID 4103545, HMEC t/Aza (9d) (SEQ ID NO:2 Incyte Unique): −0.43
differential expression, Clone ID 322569, HMEC t/Aza (4d) [2]: −0.53
differential expression, Clone ID 322569, HMEC t/Aza (9d) [2]: −0.80
differential expression, Clone ID 5322134, HMEC t/Aza (4d) [3]: −0.32
differential expression, Clone ID 5322134, HMEC t/Aza (9d) [3]: −0.43
differential expression, Clone ID 1698458, HMEC t/Aza (4d) [4]: 0.26
differential expression, Clone ID 1698458, HMEC t/Aza (9d) [4]: 0.26
differential expression, Clone ID 1871523, HMEC t/Aza (4d) (SEQ ID NO:7 KIAA1046 protein): −0.24
differential expression, Clone ID 1871523, HMEC t/Aza (9d) (SEQ ID NO:7 KIAA1046 protein): −0.07
differential expression, Clone ID 6024084, HMEC t/Aza (4d) [5]: 0.00
differential expression, Clone ID 6024084, HMEC t/Aza (9d) [5]: 0.00
differential expression, Clone ID 3810006, HMEC t/Aza (4d) (SEQ ID NO:9 Incyte Unique): 0.00
differential expression, Clone ID 3810006, HMEC t/Aza (9d) (SEQ ID NO:9 Incyte Unique): 0.00
differential expression, Clone ID 4508879, HMEC t/Aza (4d) (SEQ ID NO:10 Incyte Unique): −0.14
differential expression, Clone ID 4508879, HMEC t/Aza (9d) (SEQ ID NO:10 Incyte Unique): −0.20
differential expression, Clone ID 4225379, HMEC t/Aza (4d) (SEQ ID NO:11 U 6 RNA): 0.00
differential expression, Clone ID 4225379, HMEC t/Aza (9d) (SEQ ID NO:11 U 6 RNA): 0.00
differential expression, Clone ID 3463713, HMEC t/Aza (4d) [6]: −0.26
differential expression, Clone ID 3463713, HMEC t/Aza (9d) [6]: −0.48
differential expression, Clone ID 2998017, HMEC t/Aza (4d) [7]: 0.00
differential expression, Clone ID 2998017, HMEC t/Aza (9d) [7]: 0.00
differential expression, Clone ID 4318273, HMEC t/Aza (4d) [8]: 0.00
differential expression, Clone ID 4318273, HMEC t/Aza (9d) [8]: −0.26
differential expression, Clone ID 1649414, HMEC t/Aza (4d) (SEQ ID NO:16 Hep27 protein): −0.32
differential expression, Clone ID 1649414, HMEC t/Aza (9d) (SEQ ID NO:16 Hep27 protein): −0.32
differential expression, Clone ID 1684742, HMEC t/Aza (4d) (SEQ ID NO:18 cDNA FLJ20222): −0.36
differential expression, Clone ID 1684742, HMEC t/Aza (9d) (SEQ ID NO:18 cDNA FLJ20222): −0.20
differential expression, Clone ID 2825816, HMEC t/Aza (4d) (SEQ ID NO:19 KIAA0412): 0.00
differential expression, Clone ID 2825816, HMEC t/Aza (9d) (SEQ ID NO:19 KIAA0412): 0.00
differential expression, Clone ID 2440943, HMEC t/Aza (4d) (SEQ ID NO:21 Incyte Unique): −0.20
differential expression, Clone ID 2440943, HMEC t/Aza (9d) (SEQ ID NO:21 Incyte Unique): −0.26
differential expression, Clone ID 1294339, HMEC t/Aza (4d) (SEQ ID NO:22 PDGF-B): −0.68
differential expression, Clone ID 1294339, HMEC t/Aza (9d) (SEQ ID NO:22 PDGF-B): −0.72
differential expression, Clone ID 5104741, HMEC t/Aza (4d) (SEQ ID NO:23 cDNA FLJ10570): 0.00
differential expression, Clone ID 5104741, HMEC t/Aza (9d) (SEQ ID NO:23 cDNA FLJ10570): 0.00
differential expression, Clone ID 1855389, HMEC t/Aza (4d) [9]: −0.14
differential expression, Clone ID 1855389, HMEC t/Aza (9d) [9]: −0.26
differential expression, Clone ID 5207613, HMEC t/Aza (4d) [10]: −0.26
differential expression, Clone ID 5207613, HMEC t/Aza (9d) [10]: −0.37
differential expression, Clone ID 3207902, HMEC t/Aza (4d) [11]: −0.14
differential expression, Clone ID 3207902, HMEC t/Aza (9d) [11]: −0.26
differential expression, Clone ID 4999769, HMEC t/Aza (4d) (SEQ ID NO:27 ZNFpT17): 0.00
differential expression, Clone ID 4999769, HMEC t/Aza (9d) (SEQ ID NO:27 ZNFpT17): 0.07
differential expression, Clone ID 408886, HMEC t/Aza (4d) (SEQ ID NO:28 transketolase): −0.26
differential expression, Clone ID 408886, HMEC t/Aza (9d) (SEQ ID NO:28 transketolase): −0.32
differential expression, Clone ID 4764233, HMEC t/Aza (4d) (SEQ ID NO:30 GAGE-8): 0.00
